The nature of data set [1]: 1,9-decadiene-water distribution coefficient. The format is physicochemical. Particulars: decadiene and aqueous buffer.
Data set [2] can be described thus: Stability in simulated intestinal fluid (SIF). It is filed as in vitro ADME. Particulars: pH 6.8, 37 °C; for Degradation in SIF: 1–4 h. On the procedure: (§1) The stability assay of peptides in SIF was conducted according to United States Pharmacopeia & National Formulary (USP 25-NF 20)[64] and the previous report[65] with some modifications as follows. SIF used in this study was prepared by dissolving pancreatin (1.25 mg/mL) (Sigma, P7545, 8 × USP specifications) in 50 mM phosphate buffer at pH 6.8. The solution was vortexed for 1 min, sonicated for 15 min, centrifuged at 20,000 × g for 10 min, and filtered before use. 57 μL of SIF was incubated at 37 °C for 15 min and 3 μL of 1 μM peptide solution in DMSO was added to the warmed […]. After 1, 2, or 4 h, 60 μL of ice-cold ultra-pure water containing 5% trifluoroacetic acid was added and 120 μL of 30% acetonitrile in ultra-pure water was added. The samples were filtered and injected into UPLC.

Another data set in a line: Mouse serum stability. Particulars: mouse serum containing 1% DMSO, 37 °C; for Stability in mouse serum: up to 24 h. The format is in vitro ADME. As for the experimental part:
Compounds were incubated in mouse serum containing 1% DMSO at 37 °C for 24 h in triplicate. At each time point, 20 μL of the solution was aliquoted and diluted four times using acetonitrile to precipitate serum proteins. After centrifugation, the supernatant was diluted with water and the concentration of the intact peptide was quantified by LC-MS. For other peptides, the amount of residual intact peptides was evaluated after incubation in mouse plasma at 37 °C for 30 min. The amount of intact peptides was determined by taking the ratio of the LC-MS peak area of intact peptides just before and after the incubation.

A further data set can be described thus: Solubility assay. Particulars: phosphate buffer (pH 7.4) containing 1.2% DMSO, 37 °C, read-out: Water solubility. It is filed as physicochemical.
Data set [3] can be described thus: Stability in simulated gastric fluid (SGF). It is filed as in vitro ADME. Particulars: SGF-containing pepsin, pH 1.2, 37 °C, 1–4 h. On the procedure:
as §1, with “SGF” for “SIF”, “pepsin (3.6” for “pancreatin (1.25”, “P7012, 3357 Unit/mg)” for “P7545, 8 × USP specifications)”, “an aqueous solution of 2 mg/mL sodium chloride (NaCl)” for “50 mM phosphate buffer”, “1.2.” for “6.8.”

Data set [4] is described as follows: Caco-2 assay (permeability across cell monolayers). The format is in vitro ADME. Particulars: for Papp: Caco-2, 1 μM compounds in HBSS (pH 7.4) containing 10 mM HEPES and 1% DMSO, 3 h incubation at 37 °C, read-out: Caco-2 permeability Pa; for efflux ratio: read-out: Efflux ratio, Pe (basolateral-to-apical)/Pe (apical-to-basolateral). (Caco-2 monolayers are a common model of the intestinal barrier.)

The nature of the next data set: in vitro. The format is in vitro ADME. Particulars: PAMPA. A general note: In PAMPA a lipid-coated filter parts donor from acceptor wells.
The test system of a further data set is Caco-2 cells. Briefly: Caco-2 assay (permeability across cell monolayers). The conditions noted are these: 55 μM. It is filed as in vitro ADME.

The values below come from article PMC10023679, “Amide-to-ester substitution as a stable alternative to N-methylation for increasing membrane permeability in cyclic peptides” (Nature Communications, 2023).

Where two headings read alike, the source gives them in different places. Non-standard residues stand in square brackets, D forms with d. Residues, ends and D or L forms follow the SMILES beside them. NMeY = CN[C@@H](Cc1ccc(O)cc1)C(=O)O; Hpla = O=C(O)[C@@H](O)Cc1ccc(O)cc1; Hica(2S) = CC(C)C[C@H](O)C(=O)O

Consider `CC(C)C[C@@H]1NC(=O)[C@H](Cc2ccc(O)cc2)NC(=O)[C@H]2CCCN2C(=O)[C@H](CC(C)C)NC(=O)[C@H](CC(C)C)NC(=O)[C@@H](CC(C)C)NC1=O` [CP1] (cyclo(LL[dP]YL[dL])), for which the “log Ddec/w (1,9-decadiene–water distribution coefficient)” value (“log Ddec/w” for short) in data set [1] is on record as −0.74. Also, the “Degradation in SIF” value in data set [2] (SIF-containing pancreatin) is on record as “no significant degradation”. In the data set “Mouse serum stability”, the “Stability in mouse serum” value was “stable”. The solubility kinetic at 4 h in the data set “Solubility assay” is more than 100 µM. Further, in data set [3], the “Degradation in SGF” value is “no significant degradation”.

With `CC(C)C[C@H](NC(=O)[C@H](CC(C)C)NC(=O)[C@@H](CC(C)C)NC(=O)[C@H](CC(C)C)NC(=O)[C@H](Cc1ccc(O)cc1)OC(=O)[C@H]1CCCN1)C(N)=O` [DP1L-NH2] (H-[dP][Hpla]L[dL]LL-NH2), in the data set “Mouse serum stability”, the “Time within which degraded in mouse serum” value was not above 2 h.

On to `CC(C)C[C@@H]1NC(=O)[C@H](Cc2ccc(O)cc2)OC(=O)[C@H]2CCCN2C(=O)[C@H](CC(C)C)NC(=O)[C@H](CC(C)C)NC(=O)[C@@H](CC(C)C)NC1=O` [DP1] (cyclo(LL[dP][Hpla]L[dL])), for which the “log Ddec/w” value in data set [1] came to 1.2. For the same molecule, the “Degradation in SIF” value in data set [2] (SIF-containing pancreatin) is on record as “no significant degradation”. For the same molecule, in the data set “Mouse serum stability”, the “Stability in mouse serum” value was “stable”. Also, the Papp in data set [4] was determined as 2 ×10⁻⁶ cm/s; in “in vitro”, 2.9 ×10⁻⁶ cm/s. Besides, in data set [3], the “Degradation in SGF” value is given as “no significant degradation”.

For the molecule `CC(C)C[C@@H]1NC(=O)[C@@H](CC(C)C)NC(=O)[C@H](CC(C)C)OC(=O)[C@H](Cc2ccc(O)cc2)NC(=O)[C@H]2CCCN2C(=O)[C@H](CC(C)C)NC1=O` [DP2] (cyclo(LL[dP]Y[Hica(2S)][dL])), the efflux ratio worked out at 1.05 in data set [4] (Caco-2, pH 7.4, Inhibitor (+): quinidine, sulfasalazine, benzbromarone, 2 h incubation) and 27.2 in data set [4] (Caco-2, pH 7.4, Inhibitor (–), 1 μM, 2 h incubation). In addition, the Papp A→B in data set [4] (Caco-2, pH 7.4, Inhibitor (+): preincubated with 50 µM quinidine, 20 µM sulfasalazine, 30 µM benzbromarone, 2 h incubation, read-out: Pe (apical-to-basolateral)) was found to be 14.6 ± 3.5 ×10⁻⁶ cm/s. Also, the Papp B→A in data set [4] (Caco-2, pH 7.4, Inhibitor (+): preincubated with 50 µM quinidine, 20 µM sulfasalazine, 30 µM benzbromarone, 2 h incubation, read-out: Pe (basolateral-to-apical)) is 15.3 ± 1.1 ×10⁻⁶ cm/s. Besides, the Papp came to 0.9 ×10⁻⁶ cm/s in data set [4] and 2 ×10⁻⁶ cm/s in “in vitro”. Besides, the Papp A→B at 2 h, 1 μM in data set [4] (human, Caco-2, pH 7.4, Inhibitor (–), 1 μM, 2 h incubation, read-out: Pe (apical-to-basolateral)) came to 1.5 ± 0.4 ×10⁻⁶ cm/s. Also, in data set [4] (human, Caco-2, pH 7.4, Inhibitor (–), 1 μM, 2 h incubation, read-out: Pe (basolateral-to-apical)), the Papp B→A at 2 h, 1 μM worked out at 40.8 ± 11 ×10⁻⁶ cm/s. Moreover, the “Caco-2 permeability compared with CP1 at higher concentration” value with Caco-2 cells is given as “significantly higher permeability than CP1”.

Turning to `CC(C)C[C@@H]1NC(=O)[C@@H](CC(C)C)NC(=O)[C@H](CC(C)C)NC(=O)[C@H](Cc2ccc(O)cc2)N(C)C(=O)[C@H]2CCCN2C(=O)[C@H](CC(C)C)NC1=O` [MP1] (cyclo(LL[dP][NMeY]L[dL])), the “log Ddec/w” value in data set [1] was 0.052. Further, the “Degradation in SIF” value in data set [2] (SIF-containing pancreatin) was “no significant degradation”. In addition, the “Stability in mouse serum” value in “Mouse serum stability” was “stable”. In addition, the figures for the Papp (in data set [4]; in “in vitro”) were 0.6 ×10⁻⁶ cm/s and 1.7 ×10⁻⁶ cm/s, respectively. Moreover, the “Degradation in SGF” value in data set [3] is given as “no significant degradation”.

On to `CC[C@H](C)[C@@H]1NC(=O)[C@H](Cc2ccc(O)cc2)NC(=O)[C@@H](N)CSSC[C@@H](C(=O)N2CCC[C@H]2C(=O)N[C@@H](CC(C)C)C(=O)NCC(N)=O)NC(=O)[C@H](CC(N)=O)NC(=O)[C@H](CCC(N)=O)NC1=O` [oxytocin, reference compound], for which the “Fraction degraded in SIF” value in data set [2] (SIF-containing pancreatin, at 4 h) is on record as “more than 90%”. Moreover, in data set [2] (simulated intestinal fluid (SIF) containing pancreatin, at 4 h, read-out: Fraction degraded in SIF), the metabolised at 4 h, 0.05 μM is 94%.
